Laboratory results published in patent EP4782453A1 (Beyang Therapeutics Co., Ltd., priority 2023, dated 2025).
pIC50: −log10 of the molar value. Read-outs that look alike come from different tables or passages of the source.

Tests used:
[1] = target: T1, Menin-MLL (Homo sapiens, UniProt O00255); experiment: Inhibitory activity against Menin-MLL binding (fluorescence polarization); conditions: 150 nM His-Menin, 15 nM FITC-MLL, 25°C for 60 min
T1 construct: His-Menin (M1-L615 end); purchased BIORTUS BP9210
T1 sequence (O00255 1-615 isoform O00255-1): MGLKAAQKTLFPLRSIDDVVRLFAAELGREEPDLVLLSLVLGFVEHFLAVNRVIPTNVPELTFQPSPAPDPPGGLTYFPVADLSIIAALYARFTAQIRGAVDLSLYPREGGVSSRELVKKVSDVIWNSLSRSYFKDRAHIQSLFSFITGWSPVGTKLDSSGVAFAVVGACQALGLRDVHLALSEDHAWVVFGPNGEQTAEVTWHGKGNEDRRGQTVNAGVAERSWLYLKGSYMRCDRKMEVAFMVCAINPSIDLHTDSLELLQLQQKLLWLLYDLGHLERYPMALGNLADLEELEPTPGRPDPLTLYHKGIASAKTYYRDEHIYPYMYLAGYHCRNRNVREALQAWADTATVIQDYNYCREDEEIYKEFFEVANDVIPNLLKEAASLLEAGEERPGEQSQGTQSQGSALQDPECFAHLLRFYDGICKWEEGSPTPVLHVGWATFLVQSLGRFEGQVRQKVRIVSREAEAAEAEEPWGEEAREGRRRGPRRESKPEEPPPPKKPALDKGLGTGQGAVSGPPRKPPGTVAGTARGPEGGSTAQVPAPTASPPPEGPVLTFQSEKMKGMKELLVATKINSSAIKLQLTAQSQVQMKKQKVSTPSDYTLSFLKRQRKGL
Procedure, shortened: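 His-Menin (M1-L615, 150 nM) preincubated with compound 15 min at 25 °C in HEPES pH 7.5, 50 mM NaCl, 1 mM DTT, 0.01% BSA, then 15 nM FITC-MLL4-43 peptide added for 60 min at 25 °C. Fluorescence polarization read; IC50 from 4-parameter logistic fit, duplicates.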

[2] = tested on: MV-4-11 (carrying MLL-AF4); experiment: Inhibition of proliferation of human tumor cells (Alamar Blue, 7 days), MV-4-11; format: cell-based; conditions: Homo sapiens, MV4-11, 168 h, MV-4-11 cells (carrying MLL-AF4), method calls the value GI50
Procedure, shortened: (§1)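 Cells seeded at 4,000/well (MV-4-11, MOLM-13) or 3,000/well (KG-1a) in serum-supplemented IMDM or RPMI-1640, 37°C, 5% CO2, then exposed to 3- or 4-fold compound dilutions in duplicate for 7 days. Alamar Blue fluorescence read; GI50 derived against Day 7 0.1% DMSO (high) and Day 0 (low) controls.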

[3] = tested on: MOLM-13 (carrying MLL-AF9); experiment: Inhibition of proliferation of human tumor cells (Alamar Blue, 7 days), MOLM-13; format: cell-based; conditions: Homo sapiens, MOLM-13 cells (carrying MLL-AF9), method calls the value GI50
Procedure, shortened: as §1

[4] = tested on: KG-1a (wild-type MLL); experiment: Inhibition of proliferation of human tumor cells (Alamar Blue, 7 days), KG-1a control cell line; format: cell-based; conditions: 168 h, KG-1a cells (wild-type MLL, control cell line), method calls the value GI50
From the text: Experimental Example 2: Evaluation of Inhibitory Activity of Compounds Against Proliferation of Human Tumor Cells
• Human acute lymphoblastic leukemia cells MV-4-11, purchased from American Type Culture Collection, Catalog Number: CRL-9591; • Human acute myeloid leukemia cells MOLM-13, purchased from COBIOER BIOSCIENCES CO., LTD, Catalog Number: CBP60678; • Human acute myeloid leukemia cells KG-1a, purchased from American Type Culture Collection, Catalog Number: CCL-246.1; • Inverted Microscope, purchased from Olympus Tokyo; • Countess™ Automated Cell Counter, purchased from Invitrogen, Model: C10281; and • Multilabel Reader, purchased from Bio-Tek, Model: Synergy HT.
MV-4-11 cells were cultured in an IMDM medium containing 10% fetal bovine serum, KG-a cells were cultured in an IMDM medium containing 20% fetal bovine serum, or MOLM-13 cells were cultured in an RPMI-1640 medium containing 20% fetal bovine serum, each supplemented with 100 U·mL^-1 penicillin and 100 µg·mL^-1 streptomycin. These cells were cultured at 37°C with 5% CO2. The suspensions of individual cell lines were prepared in their respective media and seeded into 96-well plates at a density of 4,000 cells/well for MV-4-11 and MOLM-13 cells, or 3,000 cells/well for KG-1a cells. On the day of the experiment, a compound stock solution was diluted in a 3-fold or 4-fold gradient using DMSO. Each gradient-diluted stock solution was then further diluted 250-fold with a complete medium to prepare a series of working solutions at different concentrations. Subsequently, 100 µL of working solution (containing a 2-fold concentration series of the test compound) was added to each well, with duplicate wells set up for each concentration.
Seven days after compound addition (on Day 7), an Alamar Blue assay reagent (MCE, HY-111391 / CS-0040317) was added to measure the fluorescence intensity in each well. Wells containing the cells in the growth medium supplemented with 0.1% DMSO (Day 7) served as high-read control wells. The readouts from the wells containing the cells in the growth medium supplemented with 0.1% DMSO on the day of compound addition (Day 0) served as low-reading control well. GraphPad Prism software was used to calculate the concentration required to inhibit 50% of cell proliferation (GI50), which serves as a cell proliferation inhibition activity index.

[5] = fluorescence polarization, read-out: Menin-MLL IC50
[6] = Menin-MLL IC50, fluorescence polarization

pIC50 [1, 5]	pIC50 ([3]; 168 h)	SMILES	pIC50 [2]	pIC50 [4]	pIC50 [1, 6]	pIC50 ([3]; MOLM-13, 168 h)	pIC50 ([1]; read-out: Menin-MLL IC50, fluorescence polarization)
7.62	7.17	COCCN(C)CCCC(C(C)C)N1CC(c2cc(-c3ccc(F)cc3C(=O)N3CCOC[C@H]3C)c3cnn(C)c3c2)C1 (stereo partly shown) [Example 162]	7.57	5.15	–	–	–
7.36	–	CCN(C(=O)c1cc(F)ccc1-c1cc(N2CCC(NCc3ccc(-c4cc(OC)c(OC)nn4)cc3)CC2)cn2cncc12)C(C)C [Example 19, 2-{6-[4-({[4-(5,6-dimethoxypyridazin-3-yl)phenyl]methyl}amino)piperidin-1-yl]imidazo[1,5-a]pyridin-8-yl}-N-ethyl-5-fluoro-N-isopropylbenzamide]	7.31	4.70	–	–	–
7.35	–	CCN(C(=O)c1cc(F)ccc1-c1cc(N2CCC(NCc3ccc(-c4cc(OC)c(OC)nn4)cc3F)CC2)cn2cncc12)C(C)C [Example 20]	7.27	4.70	–	–	–
8.72	8.28	CCN(C(=O)c1cc(F)ccc1-c1cc(C2CN([C@H](CCCN3CCC(OC)CC3)C(C)C)C2)cn2c(C)ncc12)C(C)C [Example 389, N-ethyl-5-fluoro-2-(6-{1-[(3R)-6-(4-methoxypiperidin-1-yl)-2-methylhexan-3-yl]azacyclobutan-3-yl}-3-methylimidazo[1,5-a]pyridin-8-yl)-N-(isopropyl)benzamide]	–	4.92	–	–	–
8.41	8.11	CCN(C(=O)c1cc(F)ccc1-c1cc(C2CN([C@H](CN3CCN(C)CC3)C(C)C)C2)cn2c(C)ncc12)C(C)C [Example 403-1, N-ethyl-5-fluoro-2-(3-methyl-6-{1-[(2S)-3-methyl-1-(4-methylpiperazin-1-yl)butan-2-yl]azacyclobutan-3-yl}imidazo[1,5-a]pyridin-8-yl)-N-(isopropyl)benzamide]	–	4.82	–	–	–
7.90	7.36	Cc1nc(F)c2c(-c3ccc(F)cc3C(=O)N3CCOC[C@H]3C)cc(C3CN([C@H](CCCN4CCn5nccc5C4)C(C)C)C3)cn12 [Example 351, (3R)-4-[5-fluoro-2-(1-fluoro-3-methyl-6-{1-[(3R)-2-methyl-6-{4H,5H,6H,7H-pyrazolo[1,5-a]pyrazin-5-yl}hexan-3-yl]azacyclobutan-3-yl}imidazo[1,5-a]pyridin-8-yl)benzoyl]-3-methylmorpholine]	–	< 4.70	–	–	–
8.00	7.19	CCN(C(=O)c1cc(F)ccc1-c1cc(C2CN([C@H](CN3CCN(C)CC3)C(C)C)C2)cc2c1cnn2C)C(C)C [Example 402-2, N-ethyl-5-fluoro-2-(1-methyl-6-{1-[(2S)-3-methyl-1-(4-methylpiperazin-1-yl)butan-2-yl]azacyclobutan-3-yl}-1H-indazol-4-yl)-N-(isopropyl)benzamide]	–	4.96	–	–	–
8.02	–	CCN(C(=O)c1cc(F)ccc1-c1cc(C2=CCC(NCc3ccc(-c4cc(OC)c(OC)nn4)cc3)CC2)cn2cncc12)C(C)C (stereo not shown) [Example 17]	7.77	4.70	–	–	–

Further lines, the compound ahead of its results:

SMILES	pIC50 [1, 5]	pIC50 ([3]; 168 h)	pIC50 [2]	pIC50 [4]	pIC50 [1, 6]	pIC50 ([3]; MOLM-13, 168 h)	pIC50 ([1]; read-out: Menin-MLL IC50, fluorescence polarization)
CCN(C(=O)c1cc(F)ccc1-c1cc(C2(F)CCN(C[C@H]3CC[C@H](NS(=O)(=O)CC)CC3)C2)cn2c(C)ncc12)C(C)C (stereo partly shown) [Example 73, N-ethyl-5-fluoro-2-[6-(3-fluoro-1-{[(1r,4r)-4-ethanesulfonamidocyclohexyl]methyl}pyrrolidin-3-yl)-3-methylimidazo[1,5-a]pyridin-8-yl]-N-(isopropyl) benzamide]	–	–	7.21	4.70	7.55	–	–
Cc1ncc2c(-c3ccc(F)cc3C(=O)N(C(C)C)C3CC3)cc(N3CCN(C(=O)C4NC5CCC4CC5)CC3)cn12 [Example 72, N-cyclopropyl-5-fluoro-2-(3-methyl-6-{4-[(1R,3S,4S)-2-azabicyclo[2.2.2]octan-3-carbonyl]piperazin-1-yl}imidazo[1,5-a]pyridin-8-yl)-N-(isopropyl)benzamide]	–	–	7.24	4.70	7.27	–	–
CC(C)[C@@H](CCCN1CCN(C)CC1)N1CC(c2cc(-c3ccc(F)cc3C(=O)N3CCOC[C@H]3C)c3cnn(C)c3c2)C1 [Example 358]	–	–	–	< 4.70	7.87	7.04	–
CCN(C(=O)c1cc(F)ccc1-c1cc([C@H]2CCN(C[C@H]3CC[C@H](NS(=O)(=O)CC)CC3)C2)cn2cncc12)C(C)C [Example 22-1, N-ethyl-5-fluoro-N-isopropyl-2-{6-[(3R)-1-{[(1r,4r)-4-ethanesulfonamidocyclohexyl]methyl}pyrrolidin-3-yl]imidazo[1,5-a]pyridin-8-yl}benzamide]	–	–	7.10	4.70	7.64	–	–
CCN(C(=O)c1cc(F)ccc1-c1cc(C2=CCC(NCc3ccc4oc(=O)[nH]c4c3)CC2)cn2cncc12)C(C)C (stereo not shown) [Example 16, N-ethyl-5-fluoro-2-[6-(4-{[(2-oxo-2,3-dihydro-l,3-benzoxazol-5-yl)methyl]amino}cyclohexyl-1-ene-1-yl)imidazo[1,5-a]pyridin-8-yl]-N-isopropylbenzamide]	–	–	7.85	4.70	–	–	7.84
CCN(C(=O)c1cc(F)ccc1-c1cc(C2CCN(C[C@H]3CC[C@H](NS(=O)(=O)CC)CC3)C2)cc2c1cnn2C)C(C)C (stereo partly shown) [Example 15, N-ethyl-5-fluoro-2-[1-methyl-6-(1-{[(1r,4r)-4-ethanesulfonamidocyclohexyl]methyl}pyrrolidin-3-yl)-1H-indazol-4-yl]-N-isopropylbenzamide]	–	–	7.64	4.77	7.94	–	–
CCN(C(=O)c1cc(F)ccc1-c1cc([C@@H]2CCN(C[C@H]3CC[C@H](NS(=O)(=O)CC)CC3)C2)cc2cncn12)C(C)C [Example 25-1, N-ethyl-5-fluoro-N-isopropyl-2-{7-[(3S)-1-{[(1r,4r)-4-ethanesulfonamidocyclohexyl]methyl}pyrrolidin-3-yl]imidazo[1,5-a]pyridin-5-yl}benzamide]	–	–	8.33	4.90	8.24	–	–
CCN(C(=O)c1cc(F)ccc1-c1cc([C@@H]2CCN(C[C@H]3CC[C@H](NS(=O)(=O)CC)CC3)C2)cn2cncc12)C(C)C [Example 22-2]	–	–	7.66	4.70	7.85	–	–
